Results taken from the NIST ThermoML archive (doi:10.1007/s10765-014-1730-1).

Settings: Vibrating tube method; for mass density: Liquid; for specific volume: Gas

F/C=C\C(F)(F)F [(Z)-1,3,3,3-tetrafluoro-1-propene]
Settings | mass density [kg/m3] | specific volume [m3/kg]
353.14 K, 33995 kPa | 1208 | –
353.15 K, 96.4 kPa | – | 0.26
353.15 K, 134.4 kPa | – | 0.185
353.15 K, 220.3 kPa | – | 0.112
353.15 K, 228.3 kPa | – | 0.107
353.15 K, 253.3 kPa | – | 0.096
353.15 K, 407.8 kPa | – | 0.057
353.15 K, 3719 kPa | 1080.1 | –
353.15 K, 14840 kPa | 1141.7 | –
353.15 K, 15847 kPa | 1146.1 | –
353.15 K, 16854 kPa | 1150.3 | –
353.15 K, 18882 kPa | 1158.4 | –
353.15 K, 19886 kPa | 1162.3 | –
353.15 K, 20899 kPa | 1166.1 | –
353.15 K, 22916 kPa | 1173.4 | –
353.15 K, 24928 kPa | 1180.3 | –
353.15 K, 25940 kPa | 1183.7 | –
353.15 K, 26948 kPa | 1186.9 | –
353.15 K, 27955 kPa | 1190.1 | –
353.15 K, 28958 kPa | 1193.2 | –
353.15 K, 29961 kPa | 1196.3 | –
353.15 K, 30974 kPa | 1199.3 | –
353.15 K, 31977 kPa | 1202.3 | –
353.15 K, 32988 kPa | 1205.2 | –
353.16 K, 926 kPa | 1057.5 | –
353.16 K, 1696 kPa | 1064.4 | –
353.16 K, 2698 kPa | 1072.4 | –
353.16 K, 4742 kPa | 1087.3 | –
353.16 K, 5750 kPa | 1093.9 | –
353.16 K, 6761 kPa | 1100.2 | –
353.16 K, 7770 kPa | 1106.2 | –
353.16 K, 8771 kPa | 1111.9 | –
353.16 K, 9787 kPa | 1117.4 | –
353.16 K, 10798 kPa | 1122.6 | –
353.16 K, 11809 kPa | 1127.7 | –
353.16 K, 12819 kPa | 1132.5 | –
353.16 K, 13828 kPa | 1137.2 | –
353.16 K, 17868 kPa | 1154.4 | –
353.16 K, 21904 kPa | 1169.8 | –
353.16 K, 23917 kPa | 1176.9 | –
355.15 K, 313.8 kPa | – | 0.077
358.15 K, 97.9 kPa | – | 0.26
358.15 K, 136.4 kPa | – | 0.186
358.15 K, 223.9 kPa | – | 0.112
358.15 K, 232 kPa | – | 0.107
358.15 K, 257.4 kPa | – | 0.096
358.15 K, 415 kPa | – | 0.057
360.15 K, 319.1 kPa | – | 0.077
363.13 K, 14901 kPa | 1116.7 | –
363.14 K, 1456 kPa | 1023.9 | –
363.14 K, 1771 kPa | 1027.2 | –
363.14 K, 2776 kPa | 1037.2 | –
363.14 K, 3803 kPa | 1046.4 | –
363.14 K, 4829 kPa | 1055 | –
363.14 K, 5830 kPa | 1062.7 | –
363.14 K, 6835 kPa | 1070 | –
363.14 K, 7849 kPa | 1076.9 | –
363.14 K, 8855 kPa | 1083.4 | –
363.14 K, 9860 kPa | 1089.5 | –
363.14 K, 10872 kPa | 1095.5 | –
363.14 K, 11879 kPa | 1101.1 | –
363.14 K, 12892 kPa | 1106.5 | –
363.14 K, 13892 kPa | 1111.7 | –
363.14 K, 15912 kPa | 1121.5 | –
363.14 K, 16917 kPa | 1126.2 | –
363.14 K, 17931 kPa | 1130.7 | –
363.14 K, 18936 kPa | 1135 | –
363.14 K, 19943 kPa | 1139.3 | –
363.14 K, 20949 kPa | 1143.4 | –
363.14 K, 21954 kPa | 1147.4 | –
363.14 K, 22956 kPa | 1151.2 | –
363.14 K, 23961 kPa | 1155 | –
363.14 K, 25973 kPa | 1162.3 | –
363.14 K, 26975 kPa | 1165.8 | –
363.14 K, 27982 kPa | 1169.3 | –
363.14 K, 29991 kPa | 1175.9 | –
363.14 K, 31998 kPa | 1182.3 | –
363.15 K, 99.3 kPa | – | 0.26
363.15 K, 138.4 kPa | – | 0.186
363.15 K, 227.4 kPa | – | 0.112
363.15 K, 235.7 kPa | – | 0.107
363.15 K, 261.4 kPa | – | 0.096
363.15 K, 422.2 kPa | – | 0.057
363.15 K, 24969 kPa | 1158.7 | –
363.15 K, 28984 kPa | 1172.6 | –
363.15 K, 30992 kPa | 1179.1 | –
363.15 K, 33009 kPa | 1185.4 | –
363.15 K, 34010 kPa | 1188.4 | –
365.15 K, 324.3 kPa | – | 0.077
368.15 K, 100.7 kPa | – | 0.26
368.15 K, 140.5 kPa | – | 0.186
368.15 K, 231 kPa | – | 0.112
368.15 K, 239.3 kPa | – | 0.107
368.15 K, 265.5 kPa | – | 0.096
368.15 K, 429.3 kPa | – | 0.057
370.15 K, 329.4 kPa | – | 0.077
373.15 K, 102.2 kPa | – | 0.26
373.15 K, 142.5 kPa | – | 0.186
373.15 K, 234.6 kPa | – | 0.112
373.15 K, 242.9 kPa | – | 0.107
373.15 K, 269.6 kPa | – | 0.096
373.15 K, 436.3 kPa | – | 0.057
375.15 K, 334.6 kPa | – | 0.077
